Test results taken from patent US10004711B2, “Methods and compositions comprising 10-hydroxy-2-decenoic acid” (DSM IP ASSETS B.V., priority 2014, dated 2018).

Test: Weight after Barnes maze psychological stress (Example 9)
Type: in vivo, rat
Procedure: Aged male rats were fed 10-Hydroxy-2-decenoic acid (QBA) for approximately […] from 12-months to 20-months of age and the weight of rats was recorded (N=11-14 per group). During the last month of QBA feeding animals were subjected to the psychological stress of the Barnes maze.

In the case of `O=C(O)C=CCCCCCCCO` [QBA, 10-Hydroxy-2-decenoic acid], the “% Change (Weight after Barnes maze)” value (QBA 12 mg/kg/day, behavior stress day 7) is reported as −0.15%, the “% Change (Weight after Barnes maze)” value (QBA 12 mg/kg/day, behavior stress day 14) is reported as −0.20% and the “% Change (Weight after Barnes maze)” value (QBA 12 mg/kg/day, behavior stress day 21) is reported as 0.56%. The “% Change (Weight after Barnes maze)” value (QBA 12 mg/kg/day, behavior stress day 28) was 0.63%, the “% Change (Weight after Barnes maze)” value (QBA 12 mg/kg/day, behavior stress day 35) was 0.87% and the “% Change (Weight after Barnes maze)” value (QBA 24 mg/kg/day, behavior stress day 7) was −0.15%. For the same compound, the “% Change (Weight after Barnes maze)” value (QBA 24 mg/kg/day, behavior stress day 14) was 0.02%, the “% Change (Weight after Barnes maze)” value (QBA 24 mg/kg/day, behavior stress day 21) was 0.54% and the “% Change (Weight after Barnes maze)” value (QBA 24 mg/kg/day, behavior stress day 28) was 0.74%. The “% Change (Weight after Barnes maze)” value (QBA 24 mg/kg/day, behavior stress day 35) was 1.32%, the “weight change versus control, repeated measures ANOVA” value (all doses versus 0 mg/kg/day QBA or 0 mg/kg/day QBA+0.07% DHA) was “small but significant increase” and the “weight loss associated with the psychological stress” value (summary of Table 15) was “mitigated weight loss”.
